# Biological target: T1, PPAR-γ (Homo sapiens, UniProt P37231)
# T1 sequence (P37231 1-505): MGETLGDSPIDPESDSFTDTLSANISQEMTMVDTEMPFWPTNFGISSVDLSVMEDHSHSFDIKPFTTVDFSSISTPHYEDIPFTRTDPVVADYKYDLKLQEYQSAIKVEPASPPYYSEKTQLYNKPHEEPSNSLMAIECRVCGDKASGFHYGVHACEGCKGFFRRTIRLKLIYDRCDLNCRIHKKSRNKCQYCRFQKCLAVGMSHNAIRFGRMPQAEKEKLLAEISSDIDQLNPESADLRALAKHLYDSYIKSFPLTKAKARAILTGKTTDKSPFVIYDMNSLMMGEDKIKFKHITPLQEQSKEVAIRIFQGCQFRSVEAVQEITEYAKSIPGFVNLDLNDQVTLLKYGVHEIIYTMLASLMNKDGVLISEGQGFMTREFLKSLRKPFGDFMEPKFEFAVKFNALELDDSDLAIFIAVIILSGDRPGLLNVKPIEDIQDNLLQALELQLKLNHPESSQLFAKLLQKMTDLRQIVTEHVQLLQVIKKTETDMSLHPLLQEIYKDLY
# Assay: LanthaScreen TR-FRET competitive binding assay
row,Structure (SMILES),IC50 [µM]
1,"COc1cc(CC/C(C)=N\O)ccc1OCC(=O)Nc1ccc(F)cc1 [G1, (Z)-N-(4-Fluorophenyl)-2-(4-(3-(hydroxyimino)butyl)-2-methoxyphenoxy)acetamide]",2.25
2,"COc1cc(CC/C(C)=N\O)ccc1OCC(=O)Nc1nccs1 [G2, (Z)-2-(4-(3-(Hydroxyimino)butyl)-2-methoxyphenoxy)-N-(thiazol-2-yl)acetamide]",4.51
